# From article PMC6100073, “Activation of Anthracene Endoperoxides in Leishmania and Impairment of Mitochondrial Functions” (Molecules : A Journal of Synthetic Chemistry and Natural …, 2018)
# Assay: Xylenol orange assay: reaction of endoperoxides with Fe2+
# Settings: 50 µM compound, 250 µM FeSO4, 125 µM xylenol orange, methanol/H2O (9:1 v/v)
# Description: Xylenol orange (XO) (125 µM) and butylated hydroxytoluene (4 mM) were dissolved in methanol/H2O (9:1, v/v). FeSO4 (25 mM) in 2.5 M H2SO4 was prepared immediately before use and added, giving a final concentration of 250 µM FeSO4 in the samples. An aliquot of 100 µL EP solution (final concentration of 50 µM) was transferred into a disposable 1.5 mL cuvette (BRAND, Wertheim, Germany), and 1 mL of the color reagent was added. […] At these time points, the OD difference of the sample at 560 nm and 650 nm was determined using a MS1501 UV-vis diode array spectrophotometer (Shimadzu, Japan). As reference, a mixture of methanol/H2O (9:1, v/v) was used. […] The slope of the reaction rate was calculated using an extinction coefficient of the complex of 1.5 × 10^4 M^−1 cm^−1.
row,Structure (SMILES),Slope (nM·min^−1) Mean ± SD of XO/Fe^3+ complex formation
1,"CC12OOC(c3ccccc31)c1ccccc12 [AcEP1129, 9-methyl-9,10-dihydro-9,10-epidioxidoanthracene]","200,213 ± 60,600 nM·min^−1"
2,"CCc1ccc2c(c1)C1OOC2c2ccccc21 (stereo not shown) [AcEP1130, 2-ethyl-9,10-dihydro-9,10-epidioxidoanthracene]",146 ± 27 nM/min
3,"CC12OOC(C)(c3ccccc31)c1ccccc12 [AcEP1118, 9,10-dimethyl-9,10-dihydro-9,10-epidioxidoanthracene]",2940 ± 11 nM/min
4,"c1ccc2c(c1)C1OOC2c2ccccc21 [AcEP1117, 9,10-dihydro-9,10-epidioxidoanthracene]",77 ± 18 nM/min
